Consider 1 compound from patent EP0941988A2, “Benzamidoxime derivatives, intermediates and process for their preparation and their use as fungicides” (BASF AKTIENGESELLSCHAFT, priority 1998, dated 1999).

The test system of experiment [1] is Weizenmehltau (Erysiphe graminis f.sp.tritici). The experiment can be described thus: Efficacy against wheat powdery mildew, protective spray on wheat seedlings cv. "Frühgold" (Beispiel 2). Type of experiment: in vivo. Particulars: inoculated 24 h after spray coating dried, visual rating after 7 days, concentration not given, untreated plants 80 % infested. The protocol: Beispiel 2: Wirksamkeit gegen Weizenmehltau
Blätter von in Töpfen gewachsenen Weizenkeimlingen der Sorte "Frühgold" wurden mit wäßriger Wirkstoffaufbereitung, die aus einer Stammlösung bestehend aus 10 % Wirkstoff, 63% Cyclohexanon und 27 % Emulgiermittel angesetzt wurde, bis zur Tropfnässe besprüht und 24 h nach dem Antrocknen des Spritzbelages mit Sporen des Weizenmehltaus (Erysiphe graminis f.sp.tritici) bestäubt. Die Versuchspflanzen wurden anschließend im Gewächshaus bei Temperaturen zwischen 20 und 22 °C und 75 bis 80 % relativer Luftfeuchtigkeit aufgestellt. Nach 7 Tagen wurde das Ausmaß der Mehltauentwicklung visuell in % der gesamten Blattfläche ermittelt.

Experiment [2] relates to Weizenmehltau (Erysiphe graminis forma specialis tritici). Description: Efficacy against wheat powdery mildew, protective spray on wheat seedlings cv. "Kanzler" (Anwendungsbeispiel 1). Type of experiment: in vivo. Particulars: inoculated 24 h after spraying, rating after 7 days, untreated 80 %. The text has this:
Anwendungsbeispiel 1 - Wirksamkeit gegen Weizenmehltau
Blätter von in Töpfen gewachsenen Weizenkeimlingen der Sorte ? Kanzler" wurden mit wäßriger Wirkstoffaufbereitung, die aus einer Stammlösung bestehend aus 10 % Wirkstoff, 63 % Cyclohexanon und 27 % Emulgiermittel angesetzt wurde, bis zur Tropfnässe besprüht und 24 Stunden nach dem Antrocknen des Spritzbelages mit Sporen des Weizenmehltaus (Erysiphe graminis forma specialis tritici) bestäubt. Die Versuchspflanzen wurden anschließend im Gewächshaus bei Temperaturen zwischen 20 und 24°C und 60 bis 90 % relativer Luftfeuchtigkeit aufgestellt. Nach 7 Tagen wurde das Ausmaß der Mehltauentwicklung visuell in % Befall der gesamten Blattfläche ermittelt.

Turning to `O=C(Cc1ccccc1)NC(=NOCC1CC1)c1c(Cl)ccc(F)c1Cl` [II.1, N-Phenylacetyl-2,6-dichlor-5-fluorbenzamid-[O-cyclopropylmethyl]oxim], the “Ausmaß der Mehltauentwicklung (Befall)” value in experiment [1] is “keinen Befall”. In addition, the “%-Befall der Blätter nach Applikation von ... ppm-haltiger wäßriger Wirkstoffaufbereitung” value in experiment [2] (16 ppm) and in experiment [2] (63 ppm) was 0% throughout.
